Results reported in patent US20240208992A1, “MACROCYCLES AS CFTR MODULATORS” (Idorsia Pharmaceuticals Ltd, priority 2021, published 2024).

Target: human F508del-CFTR (Homo sapiens, UniProt P13569, DEL508-508)
Assay: F508del-CFTR cell surface expression (corrector activity), DiscoveRx ß-galactosidase complementation chemiluminescence assay in recombinant U2OS cell line;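 note: U2OS cells co-expressing ProLink-tagged F508del-CFTR and a membrane-anchored enzyme acceptor, where more surface CFTR restores β-galactosidase activity measured by chemiluminescence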
Details: for EC50: EC50, F508del-CFTR cell surface expression; for Emax: U2OS
[1] = U2OS cells, 16h compound incubation, geomean values
[2] = in relation to Emax of corrector lumacaftor (=100%), arithmetic mean values
[3] = U2OS cells, 16h compound incubation, geomean of several measurements
[4] = in relation to the Emax of the corrector lumacaftor (=100%), U2OS cells, 16h compound incubation, arithmetic mean
[5] = U2OS cell line, 16h compound incubation, geomean values
[6] = in relation to the Emax of the corrector lumacaftor (=100%), U2OS cell line, 16h compound incubation, arithmetic mean values

human F508del-CFTR, sequence (P13569 with tags, fused parts or gaps DEL508-508): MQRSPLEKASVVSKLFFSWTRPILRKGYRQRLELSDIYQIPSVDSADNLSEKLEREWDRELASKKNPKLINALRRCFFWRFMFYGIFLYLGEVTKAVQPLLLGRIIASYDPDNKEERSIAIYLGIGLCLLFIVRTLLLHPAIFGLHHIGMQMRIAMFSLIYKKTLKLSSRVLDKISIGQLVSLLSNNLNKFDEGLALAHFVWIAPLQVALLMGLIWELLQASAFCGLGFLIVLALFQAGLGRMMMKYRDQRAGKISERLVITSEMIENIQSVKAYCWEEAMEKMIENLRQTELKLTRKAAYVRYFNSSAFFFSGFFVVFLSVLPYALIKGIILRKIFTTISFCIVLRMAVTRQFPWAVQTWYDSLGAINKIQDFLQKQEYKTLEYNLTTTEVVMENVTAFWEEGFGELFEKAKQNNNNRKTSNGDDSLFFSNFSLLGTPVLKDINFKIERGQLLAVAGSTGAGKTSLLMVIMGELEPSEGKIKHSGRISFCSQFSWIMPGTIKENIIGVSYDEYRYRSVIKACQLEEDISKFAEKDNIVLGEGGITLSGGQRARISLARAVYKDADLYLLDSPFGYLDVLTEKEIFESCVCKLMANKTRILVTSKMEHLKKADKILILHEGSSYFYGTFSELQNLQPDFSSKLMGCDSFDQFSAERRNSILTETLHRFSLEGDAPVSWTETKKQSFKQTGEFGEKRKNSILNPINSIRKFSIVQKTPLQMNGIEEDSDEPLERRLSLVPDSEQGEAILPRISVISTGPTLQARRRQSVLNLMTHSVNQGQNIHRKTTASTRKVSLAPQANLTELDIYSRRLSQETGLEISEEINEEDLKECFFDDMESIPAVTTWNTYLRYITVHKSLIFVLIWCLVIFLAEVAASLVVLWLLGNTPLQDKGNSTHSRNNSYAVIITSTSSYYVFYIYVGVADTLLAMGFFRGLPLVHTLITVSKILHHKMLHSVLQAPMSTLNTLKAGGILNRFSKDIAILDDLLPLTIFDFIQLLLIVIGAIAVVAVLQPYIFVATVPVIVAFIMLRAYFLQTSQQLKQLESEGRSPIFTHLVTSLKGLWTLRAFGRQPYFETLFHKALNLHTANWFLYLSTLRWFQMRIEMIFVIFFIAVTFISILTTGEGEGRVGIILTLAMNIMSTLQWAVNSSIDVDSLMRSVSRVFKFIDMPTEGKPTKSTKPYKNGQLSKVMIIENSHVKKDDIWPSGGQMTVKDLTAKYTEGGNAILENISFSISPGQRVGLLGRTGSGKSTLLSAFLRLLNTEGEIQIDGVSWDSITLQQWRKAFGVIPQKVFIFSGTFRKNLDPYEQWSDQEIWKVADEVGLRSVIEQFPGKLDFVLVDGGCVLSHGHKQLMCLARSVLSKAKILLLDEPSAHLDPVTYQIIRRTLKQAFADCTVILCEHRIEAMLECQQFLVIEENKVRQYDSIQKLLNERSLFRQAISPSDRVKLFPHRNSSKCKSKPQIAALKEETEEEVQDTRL

EC50 [1] [µM]	Emax [2] [%]	SMILES	other results
0.338	254	COc1nc(C)cc2c1C(=O)N[C@H](C(=O)NCCc1cc(C3CC3)on1)CC(=O)N(C)[C@@H](CC(C)C)C(=O)N1CCCC[C@@H]1C(=O)N[C@H](Cc1ccccc1)CO2 [Example 565, (7S,11S,17aR,20R)-20-benzyl-N-(2-(5-cyclopropylisoxazol-3-yl)ethyl)-11-isobutyl-4-methoxy-2,10-dimethyl-5,9,12,18-tetraoxo-5,6,7,8,9,10,11,12,15,16,17,17a,18,19,20,21-hexadecahydro-14H-dipyrido[2,1-f:3′,4′-p][1]oxa[4,7,10,14]tetraazacycloheptadecine-7-carboxamide]	
		CC(C)C[C@H]1C(=O)N(C)[C@H](CC(F)F)C(=O)N[C@H](Cc2ccccc2)COc2ccc3ncc(F)cc3c2C(=O)N[C@H](C(=O)NCCn2nnc(C3CC3)n2)CC(=O)N1C [Example 893, (3S,7S,10R,13R)-13-benzyl-N-(2-(5-cyclopropyl-2H-tetrazol-2-yl)ethyl)-10-(2,2-difluoroethyl)-20-fluoro-7-isobutyl-6,9-dimethyl-1,5,8,11-tetraoxo-1,2,3,4,5,6,7,8,9,10,11,12,13,14-tetradecahydro-[1]oxa[4,7,10,14]tetraazacycloheptadecino[16,17-f]quinoline-3-carboxamide]	EC50 [3]: 0.216 µM; Emax [4]: 394%
		COc1nccc2c1C(=O)N[C@H](C(=O)NCCc1noc(C3CC3)n1)CC(=O)N(C)[C@@H](CC(C)C)C(=O)N(C)[C@H](CCc1nc(C3CC3)no1)C(=O)N[C@H](Cc1ccccc1)CO2 [Example 864, (3R,6R,9S,13S)-3-benzyl-N-(2-(5-cyclopropyl-1,2,4-oxadiazol-3-yl)ethyl)-6-(2-(3-cyclopropyl-1,2,4-oxadiazol-5-yl)ethyl)-9-isobutyl-16-methoxy-7,10-dimethyl-5,8,11,15-tetraoxo-2,3,4,5,6,7,8,9,10,11,12,13,14,15-tetradecahydropyrido[3,4-p][1]oxa[4,7,10,14]tetraazacycloheptadecine-13-carboxamide]	EC50 [3]: 0.617 µM; Emax [4]: 385%
		COc1cc(CCNC(=O)[C@@H]2CC(=O)N(C)[C@@H](CC(C)C)C(=O)N(C)[C@H](CC3CCC3)C(=O)N[C@H](Cc3ccccc3)COc3cc(C)nc(OC)c3C(=O)N2)on1 [Example 980, (3R,6R,9S,13S)-3-benzyl-6-(cyclobutylmethyl)-9-isobutyl-16-methoxy-N-(2-(3-methoxyisoxazol-5-yl)ethyl)-7,10,18-trimethyl-5,8,11,15-tetraoxo-2,3,4,5,6,7,8,9,10,11,12,13,14,15-tetradecahydropyrido[3,4-p][1]oxa[4,7,10,14]tetraazacycloheptadecine-13-carboxamide]	EC50 [3]: 0.053 µM; Emax [4]: 435%
0.091	358	CC(C)C[C@H]1C(=O)N2CCCC[C@@H]2C(=O)N[C@H](Cc2ccccc2)COc2cnc3cccc(F)c3c2C(=O)N[C@H](C(=O)NCCc2cc(C3CC3)no2)CC(=O)N1C [Example 660, (9S,13S,19aR,22R)-22-benzyl-N-(2-(3-cyclopropylisoxazol-5-yl)ethyl)-6-fluoro-13-isobutyl-12-methyl-7,11,14,20-tetraoxo-7,8,9,10,11,12,13,14,17,18,19,19a,20,21,22,23-hexadecahydro-16H-pyrido[2′,1′:6,7][1]oxa[4,7,10,14]tetraazacycloheptadecino[17,16-c]quinoline-9-carboxamide]	
0.404	112	Cc1noc2c3c(ccc12)OC[C@@H](Cc1ccccc1)NC(=O)[C@@H]1CCCCN1C(=O)[C@H](CC(C)C)N(C)C(=O)C[C@@H](C(=O)NCCc1c(F)cccc1F)NC3=O [Example 635, (8S,12S,18aS,21R)-21-benzyl-N-(2,6-difluorophenethyl)-12-isobutyl-3,11-dimethyl-6,10,13,19-tetraoxo-6,7,8,9,10,11,12,13,16,17,18,18a,19,20,21,22-hexadecahydro-15H-isoxazolo[4′,5′:5,6]benzo[1,2-p]pyrido[2,1-f][1]oxa[4,7,10,14]tetraazacycloheptadecine-8-carboxamide]	
0.167	195	COc1cc2c(cc1OC)C(=O)N[C@H](C(=O)NCCc1ccc3c(c1)OCCC3)CC(=O)N(C)[C@@H](CC(C)C)C(=O)N(CCC1CCCCC1)CC(=O)N[C@H](Cc1ccccc1)CO2 [Example 596, (3R,9S,13S)-3-benzyl-N-(2-(chroman-7-yl)ethyl)-7-(2-cyclohexylethyl)-9-isobutyl-17,18-dimethoxy-10-methyl-5,8,11,15-tetraoxo-2,3,4,5,6,7,8,9,10,11,12,13,14,15-tetradecahydrobenzo[p][1]oxa[4,7,10,14]tetraazacycloheptadecine-13-carboxamide]	
0.483	352	COc1nccc2c1C(=O)N[C@H](C(=O)NCCc1cc(C3CC3)no1)CC(=O)N(C)[C@@H](CC(C)C)C(=O)N1CCCC[C@@H]1C(=O)N[C@H](Cc1ccccc1)CO2 [Example 523, (7S,11S,17aR,20R)-20-benzyl-N-(2-(3-cyclopropylisoxazol-5-yl)ethyl)-11-isobutyl-4-methoxy-10-methyl-5,9,12,18-tetraoxo-5,6,7,8,9,10,11,12,15,16,17,17a,18,19,20,21-hexadecahydro-14H-dipyrido[2,1-f:3′,4′-p][1]oxa[4,7,10,14]tetraazacycloheptadecine-7-carboxamide]	
		COc1cccc(CCNC(=O)[C@@H]2CC(=O)N(C)[C@@H](CC(C)C)C(=O)N3CCOC[C@@H]3C(=O)N[C@H](Cc3ccccc3)COc3cnc4ccccc4c3C(=O)N2)c1OC [Example 65, (9S,13S,19aR,22R)-22-benzyl-N-(2,3-dimethoxyphenethyl)-13-isobutyl-12-methyl-7,11,14,20-tetraoxo-7,8,9,10,11,12,13,14,16,17,19,19a,20,21,22,23-hexadecahydro-[1,4]oxazino[3′,4′:6,7][1]oxa[4,7,10,14]tetraazacycloheptadecino[17,16-c]quinoline-9-carboxamide]	EC50 [5]: 0.647 µM; Emax [6]: 282%
		Cc1cc2c3c(ccc2cn1)OC[C@@H](Cc1ccccc1)NC(=O)C1(CC(F)(F)C1)N(C)C(=O)[C@H](CC(C)C)N(C)C(=O)C[C@@H](C(=O)NCCc1nc(C2CC2)no1)NC3=O [Example 952, (3′S,7′S,13′R)-13′-benzyl-N-(2-(3-cyclopropyl-1,2,4-oxadiazol-5-yl)ethyl)-3,3-difluoro-7′-isobutyl-6′,9′,20′-trimethyl-1′,5′,8′,11′-tetraoxo-2′,3′,4′,5′,6′,7′,8′,9′,11′,12′,13′,14′-dodecahydro-1′H-spiro[cyclobutane-1,10′-[1]oxa[4,7,10,14]tetraazacycloheptadecino[16,17-f]isoquinoline]-3′-carboxamide]	EC50 [3]: 0.339 µM; Emax [4]: 438%
0.521	150	Cc1cc(CCNC(=O)[C@@H]2CC(=O)N(C)[C@@H](CC(C)C)C(=O)N3CCCC[C@H]3C(=O)N[C@H](Cc3ccccc3)COc3ccc4ccccc4c3C(=O)N2)on1 [Example 606, (4aS,7R,18S,22S)-7-benzyl-22-isobutyl-21-methyl-N-(2-(3-methylisoxazol-5-yl)ethyl)-5,16,20,23-tetraoxo-2,3,4,4a,5,6,7,8,16,17,18,19,20,21,22,23-hexadecahydro-1H-naphtho[1,2-p]pyrido[2,1-f][1]oxa[4,7,10,14]tetraazacycloheptadecine-18-carboxamide]	
		CC(C)C[C@H]1C(=O)N(C)C2(CC2)C(=O)N[C@H](Cc2ccccc2)COc2cnc3ccc(F)cc3c2C(=O)N[C@H](C(=O)NCCc2ccc(-c3ncccn3)cc2)CC(=O)N1C [Example 137, (3′S,7′S,13′R)-13′-benzyl-20′-fluoro-7′-isobutyl-6′,9′-dimethyl-1′,5′,8′,11′-tetraoxo-N-(4-(pyrimidin-2-yl)phenethyl)-2′,3′,4′,5′,6′,7′,8′,9′,11′,12′,13′,14′-dodecahydro-1′H-spiro[cyclopropane-1,10′-[1]oxa[4,7,10,14]tetraazacycloheptadecino[17,16-c]quinoline]-3′-carboxamide]	EC50 [5]: 0.254 µM; Emax [6]: 311%
		[2H]C([2H])([2H])Oc1cccc2c1C(=O)N[C@H](C(=O)NCCc1cccc(OC)c1)CC(=O)N(C)[C@@H](CC(C)C)C(=O)N(CCC1CCCCC1)CC(=O)N[C@H](Cc1ccccc1)CO2 [Example 243, (3R,9S,13S)-3-benzyl-7-(2-cyclohexylethyl)-9-isobutyl-16-(methoxy-d3)-N-(3-methoxyphenethyl)-10-methyl-5,8,11,15-tetraoxo-2,3,4,5,6,7,8,9,10,11,12,13,14,15-tetradecahydrobenzo[p][1]oxa[4,7,10,14]tetraazacycloheptadecine-13-carboxamide]	EC50 [5]: 0.181 µM; Emax [6]: 232%

SMILES	EC50 [1] [µM]	Emax [2] [%]	other results
COc1cccc(CCNC(=O)[C@@H]2CC(=O)N(C)[C@@H](CC(C)C)C(=O)N(C)C3(CC3)C(=O)N[C@H](Cc3ccccc3)COc3ccc4cnccc4c3C(=O)N2)c1 [Example 494, (3′S,7′S,13′R)-13′-benzyl-7′-isobutyl-N-(3-methoxyphenethyl)-6′,9′-dimethyl-1′,5′,8′,11′-tetraoxo-2′,3′,4′,5′,6′,7′,8′,9′,11′,12′,13′,14′-dodecahydro-1′H-spiro[cyclopropane-1,10′-[1]oxa[4,7,10,14]tetraazacycloheptadecino[16,17-f]isoquinoline]-3′-carboxamide]	0.26	295	
COc1cccc(CCNC(=O)[C@@H]2CC(=O)N(C)[C@@H](CC(C)C)C(=O)N3CCN(S(=O)(=O)CCN4CCOCC4)C[C@@H]3C(=O)N[C@H](Cc3ccccc3)COc3ccc4ccccc4c3C(=O)N2)c1 [Example 745, (4aR,7R,18S,22S)-7-benzyl-22-isobutyl-N-(3-methoxyphenethyl)-21-methyl-3-((2-morpholinoethyl)sulfonyl)-5,16,20,23-tetraoxo-2,3,4,4a,5,6,7,8,16,17,18,19,20,21,22,23-hexadecahydro-1H-naphtho[1,2-p]pyrazino[2,1-f][1]oxa[4,7,10,14]tetraazacycloheptadecine-18-carboxamide]	0.693	206	
